{"source": "patent US11427588B2", "about": "“Compositions and methods for treating neurodegenerative diseases and cardiomyopathy” (THE REGENTS OF THE UNIVERSITY OF CALIFORNIA, priority 2013, dated 2022)", "molecules": {"B1": {"name": "PINK1^wt (Homo sapiens) (protein)", "chain": "LQGFRLEEYLIGQSIGKGCSAAVYEATMPTLPQNLEVTKSTGLLPGRGPGTSAPGEGQERAPGAPAFPLAIKMMWNISAGSSSEAILNTMSQELVPASRVALAGEYGAVTYRKSKRGPKQLAPHPNIIRVLRAFTSSVPLLPGALVDYPDVLPSRLHPEGLGHGRTLFLVMKNYPCTLRQYLCVNTPSPRLAAMMLLQLLEGVDHLVQQGIAHRDLKSDNILVELDPDGCPWLVIADFGCCLADESIGLQLPFSSWYVDRGGNGCLMAPEVSTARPGPRAVIDYSKADAWAVGAIAYEIFGLVNPFYGQGKAHLESRSYQEAQLPALPESVPPDVRQLVRALLQREASKRPSARVAANVLHLSLWGEHILALKNLKLDKMVGWLLQQSAATLLANRLTEKCCVETKMKMLFLANLECETLCQAALLLCSWRAAL", "notes": "kinase domain with c-terminal extension (PINK1, residues 148-581) with a C-terminal FLAG3 tag; made in house; host or cells: baculovirus / Sf21 insect cells"}}, "key": {"PINK1^wt": {"molecular_target": "PINK1^wt (Homo sapiens, UniProt Q9BXM7)", "experiment": "PINK1 kinase assay with ATP analogs (autophosphorylation, TRAP1 transphosphorylation)", "type": "biochemical, H. sapiens", "parameters": "kinase domain with c-terminal extension (PINK1, residues 148-581) with a C-terminal FLAG3 tag; made in house; host or cells: baculovirus / Sf21 insect cells", "conditions": "for transphosphorylation of TRAP1, activity versus ATP: GST tagged kinase domain 156-496 expressed in E. coli; for utilization to phosphorylate TRAP1: SF21 expressed PINK1", "excerpt": "(§1) We expressed both PINK1^wt and PINK1^G309D GST tagged kinase domain (156-496PINK1) in E. coli and performed kinase assays with a series of ATP analogs.\n(§2) Expression, purification and enzymatic characterization of PINK1: H. sapiens PINK1 kinase domain (PINK1, residues 156-496) with an N-terminal GST tag was expressed using a pGEX vector using standard techniques. H. sapiens PINK1 kinase domain with c-terminal extension (PINK1, residues 148-581) with a C-terminal FLAG3 tag was co-expressed with full length TRAP1 baculovirus/Sf21 insect cell system. […] The reaction was performed using 50 mM Tris-HCl, 150 mM NaCl, 10 mM MgCl2, 3 mM MnCl2, 0.5 mM DTT and 1 mg/ml substrate if indicated.\n(§3) We constructed several FLAG3 tagged truncation variants of PINK1 and induced expression using baculovirus infected SF21 insect cells.\n(§4) We expressed GST tagged kinase domain (PINK11156-496) in E. coli and performed a kinase assay."}, "PINK1^G309D": {"molecular_target": "PINK1^G309D (Homo sapiens, UniProt Q9BXM7, G309D)", "sequence (Q9BXM7 148-581 G309D)": "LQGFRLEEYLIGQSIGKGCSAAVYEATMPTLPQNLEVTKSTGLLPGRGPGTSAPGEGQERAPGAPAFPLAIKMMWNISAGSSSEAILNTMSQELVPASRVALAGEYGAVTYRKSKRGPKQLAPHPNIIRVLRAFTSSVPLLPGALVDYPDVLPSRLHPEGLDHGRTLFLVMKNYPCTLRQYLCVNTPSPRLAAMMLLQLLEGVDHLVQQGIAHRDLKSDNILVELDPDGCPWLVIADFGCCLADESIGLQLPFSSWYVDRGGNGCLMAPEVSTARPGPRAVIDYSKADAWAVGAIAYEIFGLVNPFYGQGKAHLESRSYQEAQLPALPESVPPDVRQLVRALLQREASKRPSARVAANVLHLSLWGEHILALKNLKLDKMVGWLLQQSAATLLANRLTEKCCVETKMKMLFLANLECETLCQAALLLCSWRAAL", "experiment": "PINK1 kinase assay with ATP analogs (autophosphorylation, TRAP1 transphosphorylation)", "type": "biochemical, H. sapiens", "parameters": "kinase domain with c-terminal extension (PINK1, residues 148-581) with a C-terminal FLAG3 tag; made in house; host or cells: baculovirus / Sf21 insect cells", "conditions": "GST tagged kinase domain 156-496 expressed in E. coli", "excerpt": "as §1, §2, §3, §4"}, "HeLa cells": {"system": "HeLa cells", "experiment": "Parkin recruitment to depolarized mitochondria in HeLa cells, PINK1 form not stated", "type": "cell-based", "protocol": "Parkin phosphorylation and mitochondrial translocation assay: HeLa cells were grown in DMEM supplemented with 10% FBS. Log phase cells were plated in 24 well plates with glass coverslips (Mattek) pretreated with fibronectin. Cells were pretreated with 50 μM of the indicated compound, followed by transfection with MitoGFP, mCherry Parkin, and full length PINK1FLAG3 in a 1:4:2 ratio using Fugene 6 (Promega). Fields of cells were selected by expression of MitoGFP (6 fields/well-3 wells/condition) and imaged at five-minute intervals following depolarization with 5 μM CCCP. Quantification was performed according to published protocols^3 and by creation of a Matlab based script.\nOur ability to enhance PINK1 activity in-vitro using KTP led us to investigate means by which to achieve enhanced activity in cells expressing PINK1. […] We treated cells with either kinetin or adenine (FIG. 2A) and measured Parkin localization following mitochondrial depolarization with CCCP (FIG. 2B). HeLa cells, which have low levels of endogenous PINK1 and PARKIN, were transfected with wildtype or PINK1^G309D, mCherryParkin, and mitoGFP. After 48 hours of incubation with 25 μM adenine, kinetin or equivalent DMSO, we imaged CCCP-mediated depolarization of mitochondria (FIGS. 2C, 2D) and calculated the percentage of GFP labelled mitochondria with mCherryParkin associated (FIG. 2E). […]"}, "rat hippocampal neurons": {"system": "rat hippocampal neurons", "experiment": "Mitochondrial motility assay in axons", "type": "cell-based", "conditions": "50 μM, 48 hours pre-treatment", "excerpt": "(§5) Mitochondrial motility assay: Primary hippocampal neuronal cultures were co-transfected with mitochondrial targeted GFP (mitoGFP) and mCherry-tagged synaptophysin (mCherrySynaptophysin) to allow for the live identification of mitochondria in axons.\n(§6) To test if kinetin decreases motility we examined the mobility of axonal mitochondria in hippocampal neurons. Primary hippocampal neuronal cultures were co-transfected with mitoGFP and mCherry-tagged Synaptophysin (mCherrySynaptophysin) to allow for the live identification of mitochondria in axons. […] To test the PINK1 dependency of this process, we treated control mouse C57 (PINK1 wildtype) and PINK1 knockout derived hippocampal neurons with kinetin or 9MK and imaged their mitochondria."}, "[1]": {"system": "PINK1 knockout derived hippocampal neurons", "experiment": "Mitochondrial motility assay in axons", "type": "cell-based, mouse", "excerpt": "as §5, §6"}, "[2]": {"substrate": "Nc1ncnc2c1ncn2[C@@H]1O[C@H](COP(=O)(O)OP(=O)(O)OP(=O)(O)O)[C@@H](O)[C@H]1O", "experiment": "purified protein, by the assay type", "type": "biochemical, H. sapiens", "conditions": "other: catalytic constants for PINK1, nucleotide as substrate, autophosphorylation, SF21 expressed PINK1 148-581"}, "[3]": {"conditions": "catalytic constants for PINK1, nucleotide as substrate, autophosphorylation, SF21 expressed PINK1 148-581"}}, "data": [{"molecule": "N^6 furfuryl ATP [KTP]", "values": [{"measurement": "PINK1 activity stimulation versus other N6 substituted ATP analogs", "setting": "PINK1^wt; FIG. 12", "result": "stimulated"}, {"measurement": "transphosphorylation of TRAP1, activity versus ATP", "setting": "PINK1^wt", "result": "amplified"}, {"measurement": "transphosphorylation of TRAP1, activity versus ATP", "setting": "PINK1^wt; listed as N^6 FF ATP", "result": "more efficiently than ATP"}, {"measurement": "fold higher Vmax versus ATP", "setting": "PINK1^wt; PINK1 autophosphorylation", "result": 1.84, "unit": "fold"}, {"measurement": "utilization to phosphorylate TRAP1", "setting": "PINK1^wt", "result": "utilizes"}, {"measurement": "Km", "setting": "PINK1^wt; [3]", "result": 51.7, "unit": "µM"}, {"measurement": "Vmax", "setting": "PINK1^wt; [3]", "result": "0.0098 ± 0.002", "unit": "min⁻¹"}, {"measurement": "autophosphorylation", "setting": "PINK1^G309D", "result": "increased levels of autophosphorylation"}, {"measurement": "transphosphorylation of TRAP1, activity versus ATP", "setting": "PINK1^G309D", "result": "amplified"}, {"measurement": "transphosphorylation of TRAP1, activity versus ATP", "setting": "PINK1^G309D; listed as N^6 FF ATP", "result": "increased catalytic rate than ATP"}]}, {"molecule": "O=P(O)(O)OP(=O)(O)OP(=O)(O)OC[C@H]1O[C@@H](n2cnc3c(NCCc4ccccc4)ncnc32)[C@H](O)[C@@H]1O", "note": "[N^6 Phenethyl ATP, reference compound]", "values": [{"measurement": "utilization to phosphorylate TRAP1", "setting": "PINK1^wt", "result": "not"}]}, {"molecule": "c1ccc(CNc2ncnc3nc[nH]c23)cc1", "note": "[N6 benzyl adenine, reference compound]", "values": [{"measurement": "Parkin recruitment to CCCP depolarized mitochondria", "setting": "HeLa cells", "result": "less active than kinetin"}]}, {"molecule": "Cn1cnc2c(NCc3ccco3)ncnc21", "note": "[9-methyl-Kinetin, reference compound]", "values": [{"measurement": "mitochondrial movement / motility", "setting": "rat hippocampal neurons", "result": "did not affect mitochondrial motility"}, {"measurement": "mitochondrial motility", "setting": "[1]", "result": "no change in motility"}]}, {"molecule": "O=P(O)(O)OP(=O)(O)OP(=O)(O)OC[C@H]1O[C@@H](n2cnc3c(NCc4ccccc4)ncnc32)[C@H](O)[C@@H]1O", "note": "[N^6 Benzyl, N^6 Benzyl ATP, reference compound]", "values": [{"measurement": "utilization to phosphorylate TRAP1", "setting": "PINK1^wt", "result": "not"}]}, {"molecule": "B1", "values": [{"measurement": "Km", "setting": "[2]", "result": 18.4, "unit": "µM"}, {"measurement": "kcat", "setting": "[2]", "result": "0.0053 ± 0.001", "unit": "min⁻¹"}]}]}
